Reference: US12605369B2, “Amido-substituted heterocyclic compounds and methods of use thereof for the treatment of herpes viruses” (Merck Sharp & Dohme LLC, priority 2019, dated 2026)
Where two headings read alike, the source gives them in different places.

Columns and labels:
[1] = target: T1, varicella zoster virus DNA polymerase (Varicella-zoster virus, UniProt P09252); test: VZV polymerase assay (AlphaLISA, Example 15); format: biochemical; conditions: VZV polymerase 0.4 nM; 30 min pre-incubation; 60 min at 37° C.
T1 construct: made in house; host or cells: SF21 insect cells (baculovirus vector)
T1 sequence (P09252 whole entry): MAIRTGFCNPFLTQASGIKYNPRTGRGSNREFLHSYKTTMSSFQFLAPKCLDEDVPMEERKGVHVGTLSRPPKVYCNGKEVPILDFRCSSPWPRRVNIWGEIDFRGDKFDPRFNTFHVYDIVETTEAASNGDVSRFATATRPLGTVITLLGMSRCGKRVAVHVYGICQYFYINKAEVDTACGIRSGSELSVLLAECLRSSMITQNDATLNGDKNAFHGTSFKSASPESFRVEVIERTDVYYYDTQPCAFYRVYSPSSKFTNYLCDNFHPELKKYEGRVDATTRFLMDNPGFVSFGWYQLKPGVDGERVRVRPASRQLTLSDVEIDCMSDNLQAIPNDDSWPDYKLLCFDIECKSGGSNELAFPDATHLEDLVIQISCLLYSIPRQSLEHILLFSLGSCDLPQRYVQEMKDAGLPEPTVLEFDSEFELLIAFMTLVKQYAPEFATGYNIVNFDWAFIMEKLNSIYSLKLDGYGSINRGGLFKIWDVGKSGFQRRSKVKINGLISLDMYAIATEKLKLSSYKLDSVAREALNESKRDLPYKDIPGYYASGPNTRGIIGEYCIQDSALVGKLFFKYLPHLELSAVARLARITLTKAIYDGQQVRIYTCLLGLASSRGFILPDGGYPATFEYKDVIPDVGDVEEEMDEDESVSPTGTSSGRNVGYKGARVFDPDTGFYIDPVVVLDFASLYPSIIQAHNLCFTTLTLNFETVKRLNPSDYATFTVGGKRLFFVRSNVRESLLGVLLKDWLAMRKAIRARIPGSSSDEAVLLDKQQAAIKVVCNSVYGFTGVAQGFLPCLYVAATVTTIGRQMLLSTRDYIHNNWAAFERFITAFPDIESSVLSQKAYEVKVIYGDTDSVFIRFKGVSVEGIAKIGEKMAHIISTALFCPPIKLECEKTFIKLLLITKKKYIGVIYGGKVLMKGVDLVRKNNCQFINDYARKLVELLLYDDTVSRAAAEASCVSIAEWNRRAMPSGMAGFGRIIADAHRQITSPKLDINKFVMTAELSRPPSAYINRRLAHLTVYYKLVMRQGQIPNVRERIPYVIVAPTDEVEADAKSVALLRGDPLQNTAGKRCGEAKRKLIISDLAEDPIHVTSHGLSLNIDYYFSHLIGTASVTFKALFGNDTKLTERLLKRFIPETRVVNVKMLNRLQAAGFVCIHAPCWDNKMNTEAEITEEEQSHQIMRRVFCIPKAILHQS
Protocol: (§1) CMV and VZW Polymerase Assays
(§2) Human cytomegalovirus and varicella zoster virus DNA polymerases were expressed via baculovirus vector in SF21 cells and purified. Heterodimeric nucleic acid substrate used in the herpesvirus polymerase reactions were generated by annealing a 59-mer template to a 17-mer digoxigenin-labeled primer. Polymerase (HCMV final concentration of 0.2 nM; VZV final concentration of 0.4 nM) was combined with an inhibitor compound or DMSO in assay buffer (10 mM HEPES, pH 7.5, 25 mM KCl, 25 mM NaCl, 5 mM MgCl2, 5% glycerol, 0.67 mg/ml bovine serum albumin, and 1 mM tris(2-carboxyethyl)phosphine)), and this mixture was pre-incubated for 30 minutes at room temperature in 384-well microtiter plates. The polymerization reaction was initiated by the addition of template/primer substrate (final concentration: 1.6 nM) and dNTPs (final concentration: 24 nM dCTP, 24 nMdGTP, 16 nM dATP, 16 nM dTTP, and 0.8 nM biotin-dUTP). After a 60 minute incubation period at 37° C., the reactions were terminated using quench buffer (25 mM HEPES pH 7.5, 100 mM NaCl, 0.25% Tween-20, 12 mM EDTA, and 1 mg/ml bovine serum albumin). Incorporation of biotinylated UTP was detected with 2.5-5 μg/mL anti-DIG AlphaLISA acceptor beads and 5-10 μg/mL streptavidin AlphaLISA donor beads (PerkinElmer). Compound effects were normalized to the window defined by the controls (DMSO only and pre-quenched wells) and were fit using a 4-parameter algorithm to report an IC50.

[2] = target: T2, Human cytomegalovirus DNA polymerase (Human cytomegalovirus, UniProt P08546); test: CMV polymerase assay (AlphaLISA, Example 15); format: biochemical; conditions: HCMV polymerase 0.2 nM; 30 min pre-incubation; 60 min at 37° C.
T2 construct: made in house; host or cells: SF21 insect cells (baculovirus vector)
T2 sequence (P08546 whole entry): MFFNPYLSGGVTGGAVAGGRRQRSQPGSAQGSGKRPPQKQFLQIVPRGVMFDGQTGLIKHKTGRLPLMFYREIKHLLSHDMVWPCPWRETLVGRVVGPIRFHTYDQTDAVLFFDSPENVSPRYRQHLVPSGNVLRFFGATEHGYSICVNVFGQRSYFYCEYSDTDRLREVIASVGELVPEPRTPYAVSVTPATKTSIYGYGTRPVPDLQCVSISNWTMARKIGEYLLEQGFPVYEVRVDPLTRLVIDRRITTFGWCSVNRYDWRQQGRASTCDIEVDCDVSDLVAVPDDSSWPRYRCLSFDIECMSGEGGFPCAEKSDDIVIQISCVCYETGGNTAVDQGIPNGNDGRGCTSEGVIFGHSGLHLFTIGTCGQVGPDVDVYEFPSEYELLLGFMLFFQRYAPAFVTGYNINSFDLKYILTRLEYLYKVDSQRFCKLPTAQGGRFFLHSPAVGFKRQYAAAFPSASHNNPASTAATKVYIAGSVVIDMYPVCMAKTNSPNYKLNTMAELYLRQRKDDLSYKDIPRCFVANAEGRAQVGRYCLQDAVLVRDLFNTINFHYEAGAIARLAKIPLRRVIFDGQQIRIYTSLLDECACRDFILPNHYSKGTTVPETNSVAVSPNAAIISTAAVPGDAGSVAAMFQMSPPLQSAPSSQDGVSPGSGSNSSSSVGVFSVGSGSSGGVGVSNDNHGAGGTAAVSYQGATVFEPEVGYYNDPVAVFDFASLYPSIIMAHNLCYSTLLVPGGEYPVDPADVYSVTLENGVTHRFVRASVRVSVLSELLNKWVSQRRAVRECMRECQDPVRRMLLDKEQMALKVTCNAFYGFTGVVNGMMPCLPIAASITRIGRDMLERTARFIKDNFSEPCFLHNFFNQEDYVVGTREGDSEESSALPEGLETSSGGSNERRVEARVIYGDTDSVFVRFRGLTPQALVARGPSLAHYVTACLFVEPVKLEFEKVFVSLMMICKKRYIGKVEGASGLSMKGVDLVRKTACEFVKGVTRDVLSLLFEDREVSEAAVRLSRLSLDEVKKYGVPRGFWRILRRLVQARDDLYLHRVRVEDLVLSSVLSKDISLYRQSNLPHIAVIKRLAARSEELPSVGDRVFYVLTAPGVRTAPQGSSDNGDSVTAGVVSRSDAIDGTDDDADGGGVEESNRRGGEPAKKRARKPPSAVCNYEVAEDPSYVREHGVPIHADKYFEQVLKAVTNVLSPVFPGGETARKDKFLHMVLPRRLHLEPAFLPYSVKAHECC
Protocol: as §1, §2

HCMV Strain AD169 = test: Viral qPCR assay, HCMV (Example 14); format: cell-based; conditions: Strain AD169 in MRC-5 cells, 0.05-0.1 pfu/cell, ~72 hours, viral genome copy number by qPCR, growth media or 50% fetal bovine serum, read-out: CMV Cell EC50
Protocol: (§3) MRCS and Vero cells were obtained from ATCC and were maintained at 37° C./5% CO2/90% relative humidity in Minimal Essential Medium with 10% fetal bovine serum, […], 100 units/mL penicillin and 100 ug/mL streptomycin. Assay plates were prepared by dispensing compounds dissolved in DMSO into wells of 384 well collagen-coated plates using an ECHO acoustic dispenser. Each test compound was tested in a 10-point, serial 3-fold dilution. Controls included uninfected cells and infected cells treated only with DMSO. Assays were initiated by mixing selected cells, in suspension, with virus, and dispensing 50 μl/well infected cells to pre-plated compounds. Plates were incubated at 37° C./5% CO2/90% relative humidity for ˜72 hours to permit genomic replication, and infected cells were lysed by the addition of an equal volume of lysis buffer (10 mM Tris-HCl, pH8, 50 mM KCl, 2 mM MgCl2, 0.45% NP-40, 0.45% Tween-20, and 100 μg/mL proteinase K). An aliquot of the lysate was then transferred to a 384-well PCR plate and incubated at 56° C. for 1 hour, and then at 95° C. for 10 minutes. Levels of a viral gene were measured in 10 ul qPCR assays using TaqMan® Gene Expression Master Mix (Applied Biosystems) and an 7900HT Fast Real-Time PCR System with 384-Well Block Module. 7-point, serial 10-fold dilutions of a plasmid standard were run on each plate to generate a standard curve, and genome copies numbers were calculated by plotting experimental Ct onto linear regression of the standard curve. Compound effects on viral genome copy number were normalized to the window defined by the controls. Calculated % effects were fit using a 4-parameter algorithm, and EC50 was reported. • HCMV: Strain AD169 was assayed in MRC-5 cells and was used at 0.05-0.1 pfu/cell. The assays were performed in either growth media or in the same media with 50% fetal bovine serum. Primer-probe set was Thermo Fisher Assay ID=AIFATFK. • HSV-1: Strain F was assayed in Vero or MRCS cells and was used at 0.0005-0.004 pfu/cell in growth medium. Primer-probe set was Thermo Fisher Assay ID=AIBJZIB. • HSV-2: Strain G was assayed in Vero or MRCS cells and was used at 0.004-0.4 pfu/cell in growth medium. Primer-probe set was Thermo Fisher Assay ID=AICSXOJ.

HSV-1 Strain F = test: Viral qPCR assay, HSV-1 (Example 14); format: cell-based; conditions: Strain F in Vero or MRCS cells, 0.0005-0.004 pfu/cell, viral genome copy number by qPCR, read-out: HSV1 Cell EC50
Protocol: as §3

HSV-2 Strain G = test: Viral qPCR assay, HSV-2 (Example 14); format: cell-based; conditions: Strain G in Vero or MRCS cells, 0.004-0.4 pfu/cell, viral genome copy number by qPCR, read-out: HSV2 Cell EC50
Protocol: as §3

[3] = Human betaherpesvirus 5, AD169, MRC5, 72 h
[4] = Human alphaherpesvirus 1, Vero, 72 h
[5] = Human alphaherpesvirus 2, Vero, 72 h

Row | SMILES | IC50 [1] [nM] | IC50 [2] [nM] | EC50 (HCMV Strain AD169; [3]) [nM] | EC50 (HSV-1 Strain F; [4]) [nM] | EC50 (HSV-2 Strain G; [5]) [nM] | EC50 (HSV-1 Strain F; ~72 hours) [nM] | EC50 (HCMV Strain AD169) [nM] | EC50 (HSV-2 Strain G; ~72 hours) [nM]
1 | COc1nc(NC(=O)N2Cc3ccc(Cl)cc3C2)ccc1C[C@H]1COC(=O)N1 [Compound 12] | 4820 | 3770 | > 9900 | – | – | – | – | –
2 | COc1nc(N2CCN(Cc3ccc(C#N)cc3)C2=O)ccc1C[C@H]1COC(=O)N1 [Compound 22] | – | 35 | 318 | 131 | 100 | – | – | –
3 | COc1nc(NC(=O)C2Cc3ccc(C#N)cc3CN2)ccc1C[C@H]1COC(=O)N1 (stereo partly shown) [Compound 35] | – | – | – | – | – | 252 | 206 | 583
4 | COc1nc(NC(=O)Cc2ccc(C(F)(F)F)c(F)c2)ccc1C[C@H]1COC(=O)N1 [Compound 14] | – | 11 | 486 | 281 | 134 | – | – | –
5 | COc1nc(NC(=O)C2CCc3cc(Cl)ccc32)ccc1C[C@H]1COC(=O)N1 (stereo partly shown) [Compound 17] | – | 23 | 133 | 127 | 99 | – | – | –
6 | COc1nc(NC(=O)Cc2ccc(Cl)cc2COCc2ccccc2)ccc1C[C@H]1COC(=O)N1 [Compound 2] | – | 108 | 3550 | – | – | – | – | –
7 | COc1nc(NC(=O)C2CCc3cc(C#N)ccc32)ccc1C[C@H]1COC(=O)N1 (stereo partly shown) [Compound 19] | 7 | 10 | 475 | 311 | 259 | – | – | –
8 | COc1nc(NC(=O)C2CCc3cc(C#N)ccc3O2)ccc1C[C@H]1COC(=O)N1 (stereo partly shown) [Compound 23] | 0.4 | 0.4 | 38 | 44 | 56 | – | – | –
9 | COc1nc(NC(=O)C2CN(C)c3cc(C#N)ccc3O2)ccc1C[C@H]1COC(=O)N1 (stereo partly shown) [Compound 27] | – | – | – | – | – | 62000 | 10600 | 12900
10 | COc1nc(N2CCN(c3ccc(C#N)cc3)C2=O)ccc1C[C@H]1COC(=O)N1 [Compound 21] | – | 29 | 369 | 309 | 90 | – | – | –
11 | COc1nc(N2CCC(c3ccc(C#N)cc3)C2=O)ccc1C[C@H]1COC(=O)N1 (stereo partly shown) [Compound 20] | 5 | 6 | 120 | 124 | 132 | – | – | –
12 | COc1nc(NC(=O)Cc2ccc(C#N)cc2F)ccc1C[C@H]1COC(=O)N1 [Compound 15] | 8 | 7.5 | 83 | 453 | 523 | – | – | –
13 | COc1nc(NC(=O)Cc2ccc(C#N)cc2)ccc1C[C@H]1COC(=O)N1 [Compound 13] | 8 | 22 | 128 | 300 | 191 | – | – | –
14 | COc1nc(NC(=O)[C@@H]2Cc3ccc(C#N)cc3CN2C)ccc1C[C@H]1COC(=O)N1 [Compound 28] | – | – | 175 | 381 | 802 | – | – | –
